Experimental data reported in US11517532B2, “Methods of treating hepatitis delta virus infection” (Eiger BioPharmaceuticals, Inc., priority 2015, dated 2022).
Where two headings read alike, the source gives them in different places.

Tests used:
[1] = formulated in crystalline forms, animals; cited from earlier work
[2] = cited from earlier work
[3] = Lonafarnib serum concentration in HDV patients, Example 3; format: in vivo, human; conditions: for LNF Serum Concentration at Week 6 / concentration at 6 weeks: oral; for LNF Serum Concentration at Week 6: listed as LNF; for concentration at 6 weeks: human, serum, po, read-out: LNF Serum Concentration at Week 6
Description: Serum levels of lonafarnib can be measured using art-known methods. As used herein, a serum lonafarnib level or concentration can be measured from a serum sample obtained from a subject periodically (such as weekly, biweekly, monthly or according to other schedules) and the levels during intervening periods can be extrapolated. For example, if a measurement of 4,000 ng/ml is obtained at 4 weeks and a measurement of 6,000 ng/ml is obtained at 6 weeks, for purposes of this analysis it is concluded that the serum level during the intervening two weeks ranged between 4,000 and 6,000 ng/ml. In some embodiments the first measurement is made no earlier than one week after the initiation of oral therapy.
This example describes the anti-HDV effect of combination therapy with separately formulated lonafarnib and ritonavir at several combinations of dosages. Eight patients with chronic HDV infection were divided into four groups and treated with different dose combinations of separately formulated lonafarnib and ritonavir (orally administered) for 42 days under the regimens summarized in Table 10. The patients were followed for an additional period of time after discontinuation of therapy.

[4] = Group 2 (Patients 3-4): lonafarnib 100 mg BID + ritonavir 50 mg QD
[5] = Group 3 (Patients 5-6): lonafarnib 100 mg QD + ritonavir 100 mg QD
[6] = Group 4 (Patients 7-8): lonafarnib 150 mg QD + ritonavir 100 mg QD

Compound: NC(=O)N1CCC(CC(=O)N2CCC([C@H]3c4ncc(Br)cc4CCc4cc(Cl)cc(Br)c43)CC2)CC1 [lonafarnib]
- bioavailability [1]: low and variable
- stability in solution ([2]; by pH): stable at neutral pH but will hydrolyze in acidic or basic conditions
- water solubility [2]: poorly water soluble
- LNF Serum Concentration at Week 6 [3, 4]: 3044 ng/mL
- LNF Serum Concentration at Week 6 [3, 5]: 1640 ng/mL
- LNF Serum Concentration at Week 6 [3, 6]: 1830 ng/mL
- lonafarnib serum levels (FIG. 6) ([3]; Patient 8, reduced correlation with HDV viral load): ~2,000 ng/mL
- LNF serum concentrations ([3]; QD dosing of ritonavir): 2500 to 3500 ng/mL
- concentration at 6 weeks [3, 4]: 4020 ng/mL
- concentration at 6 weeks [3, 5]: 2340 ng/mL
- concentration at 6 weeks [3, 6]: 1840 ng/mL
- lonafarnib serum levels (FIG. 5) ([3]; one patient, 100 mg BID lonafarnib + 100 mg QD ritonavir, inverse correlation with HDV viral load): ~5,000 ng/mL
